Measured values from BigSolDB 2.1.

Nc1cccc(C(=O)O)c1
solubility (mole fraction)
Details | 283.15 K | 288.15 K | 293.15 K | 298.15 K | 303.15 K | 308.15 K | 313.15 K | 318.15 K | 323.15 K
in 1,4-dioxane | – | 0.0319 | 0.035 | 0.0394 | 0.042 | 0.0469 | 0.0549 | 0.0627 | 0.0709
in acetone | 0.0289 | 0.0295 | 0.0304 | 0.0325 | 0.0375 | 0.0414 | 0.0455 | 0.052 | 0.0601
in acetonitrile | 0.00192 | 0.00225 | 0.00264 | 0.00313 | 0.00358 | 0.00452 | 0.00561 | 0.00664 | 0.00765
in ethanol | 0.00821 | 0.00955 | 0.0107 | 0.0117 | 0.0137 | 0.0154 | 0.0182 | 0.0218 | 0.0241
in isobutanol | 0.00506 | 0.00542 | 0.00599 | 0.00683 | 0.00796 | 0.00946 | 0.0113 | 0.0131 | 0.0158
in isopropanol | 0.00638 | 0.00712 | 0.00801 | 0.00943 | 0.0112 | 0.0135 | 0.0165 | 0.0204 | 0.023
in isopropyl acetate | 0.00459 | 0.00495 | 0.00526 | 0.00591 | 0.00674 | 0.00765 | 0.00917 | 0.0113 | 0.0135
in methanol | 0.012 | 0.0128 | 0.0139 | 0.0145 | 0.0166 | 0.0187 | 0.0219 | 0.0254 | 0.0296
in methyl acetate | 0.00731 | 0.00776 | 0.00841 | 0.00918 | 0.0108 | 0.0128 | 0.0149 | 0.0173 | 0.0203
in n-butanol | 0.00532 | 0.00595 | 0.00682 | 0.00768 | 0.00934 | 0.0117 | 0.0134 | 0.0156 | 0.0175
in n-propanol | 0.00568 | 0.00675 | 0.00804 | 0.00911 | 0.0107 | 0.0126 | 0.014 | 0.016 | 0.019
in water | 0.000506 | 0.000628 | 0.000725 | 0.000804 | 0.000976 | 0.00119 | 0.00135 | 0.00153 | 0.00184
